Data on nine compounds can be found in patent US20240368135A1 (VERTEX PHARMACEUTICALS INCORPORATED, priority 2021, published 2024).

In general, IC50 refers to the midpoint of a concentration-inhibition curve.

For this assay, the target named is human NaV 1.8 (Homo sapiens, UniProt Q9Y5Y9). Nature of the assay: E-VIPR assay detecting and measuring NaV inhibition properties. Type of assay: cell-based. The settings on record: HEK cells expressing truncated human NaV 1.8; no human serum; read-out: IC50 in the E-VIPR Assay. A digest of the protocol: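 Membrane potential was followed by coumarin/oxonol FRET during electrical field stimulation of matrigel-seeded HEK cells carrying truncated human NaV1.8 plus KIR2.1. Dosing used 11 points, 3-fold steps, top 300 nM final, 0.625% DMSO, with or without 25% human serum.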
human NaV 1.8, sequence (Q9Y5Y9 126-399 limits assumed): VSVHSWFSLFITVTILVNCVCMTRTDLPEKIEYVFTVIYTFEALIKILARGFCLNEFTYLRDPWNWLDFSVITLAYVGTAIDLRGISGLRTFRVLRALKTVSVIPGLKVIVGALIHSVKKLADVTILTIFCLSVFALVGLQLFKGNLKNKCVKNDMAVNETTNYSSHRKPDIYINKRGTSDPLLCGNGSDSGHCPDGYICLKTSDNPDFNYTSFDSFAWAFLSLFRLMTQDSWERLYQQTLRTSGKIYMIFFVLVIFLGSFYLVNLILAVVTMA
human NaV 1.8, sequence (Q9Y5Y9 660-890 limits assumed): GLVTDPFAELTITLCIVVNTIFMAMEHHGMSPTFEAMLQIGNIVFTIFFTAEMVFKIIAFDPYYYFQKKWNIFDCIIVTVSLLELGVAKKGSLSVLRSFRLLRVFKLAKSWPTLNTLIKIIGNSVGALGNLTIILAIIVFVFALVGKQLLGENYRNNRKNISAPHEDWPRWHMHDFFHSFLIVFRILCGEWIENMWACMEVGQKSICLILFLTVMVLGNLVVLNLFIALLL
human NaV 1.8, sequence (Q9Y5Y9 1148-1722 limits assumed): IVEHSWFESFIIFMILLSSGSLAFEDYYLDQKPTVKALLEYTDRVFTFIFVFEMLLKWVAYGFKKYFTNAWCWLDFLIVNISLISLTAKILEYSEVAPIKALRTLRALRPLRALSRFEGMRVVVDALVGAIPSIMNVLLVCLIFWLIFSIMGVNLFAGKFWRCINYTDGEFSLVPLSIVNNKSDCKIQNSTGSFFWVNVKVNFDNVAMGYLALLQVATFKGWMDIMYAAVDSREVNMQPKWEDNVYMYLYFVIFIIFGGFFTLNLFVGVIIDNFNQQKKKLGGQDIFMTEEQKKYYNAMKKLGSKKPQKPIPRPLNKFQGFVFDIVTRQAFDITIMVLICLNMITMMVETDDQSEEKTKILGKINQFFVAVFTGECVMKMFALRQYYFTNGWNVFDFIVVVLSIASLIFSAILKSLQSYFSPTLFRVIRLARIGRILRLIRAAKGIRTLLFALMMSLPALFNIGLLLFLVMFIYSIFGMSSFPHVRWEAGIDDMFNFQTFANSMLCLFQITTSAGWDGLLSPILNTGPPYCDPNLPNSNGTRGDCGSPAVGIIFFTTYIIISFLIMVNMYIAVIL
Regarding `Cc1nn(C(F)F)cc1NC(=O)[C@@H]1O[C@@](C)(C(F)(F)F)[C@@H](C)[C@H]1c1ccc(F)c(F)c1OCCN1CCOCC1` [Compound 591, (2R,3S,4S,5R)-3-(3,4-difluoro-2-(2-morpholinoethoxy)phenyl)-N-(1-(difluoromethyl)-3-methyl-1H-pyrazol-4-yl)-4,5-dimethyl-5-(trifluoromethyl)tetrahydrofuran-2-carboxamide], the IC50 is 10 to 100 nM.

For the compound `COc1c([C@H]2[C@H](C(=O)Nc3ccc(C#N)cn3)O[C@@](C)(C(F)(F)F)[C@H]2C)ccc(F)c1F` [Compound 187, (2R,2S,4S,5R)-N-(5-cyanopyridin-2-yl)-3-(3,4-difluoro-2-methoxyphenyl)-4,5-dimethyl-5-(trifluoromethyl)tetrahydrofuran-2-carboxamide], the IC50 was 10 to 100 nM.

Take `COc1c([C@H]2[C@H](C(=O)Nc3ccc(-c4ccn(C)n4)nc3)O[C@@](C)(C(F)(F)F)[C@H]2C)ccc(F)c1F` [Compound 400, (2R,3S,4S,5R)-3-(3,4-difluoro-2-methoxyphenyl)-4,5-dimethyl-N-(6-(1-methyl-1H-pyrazol-3-yl)pyridin-3-yl)-5-(trifluoromethyl)-tetrahydrofuran-2-carboxamide]: the IC50 is 100 to 1000 nM.

Turning to `COc1c([C@H]2[C@H](C(=O)Nc3ccnc(N4C[C@@H]5C[C@H](C4=O)N5C)c3)O[C@@](C)(C(F)(F)F)[C@H]2C)ccc(F)c1F` (single isomer, unassigned) [Compound 510, rel-(2R*,3S*,4S*,5R*)-3-(3,4-difluoro-2-methoxyphenyl)-4,5-dimethyl-N-(2-((1R,5S)-6-methyl-2-oxo-3,6-diazabicyclo[3.1.1]heptan-3-yl)pyridin-4-yl)-5-(trifluoromethyl)tetrahydrofuran-2-carboxamide], the IC50 was in the range of 10 to 100 nM.

Take `COc1c([C@H]2[C@H](C(=O)Nc3c[nH]nn3)O[C@@](C)(C(F)(F)F)[C@H]2C)ccc(F)c1F` [Compound 372, (2R,3S,4S,5R)-3-(3,4-difluoro-2-methoxyphenyl)-4,5-dimethyl-N-(1H-1,2,3-triazol-4-yl)-5-(trifluoromethyl)tetrahydrofuran-2-carboxamide]: the IC50 lay within 10 to 100 nM.

As to `COCCOc1c([C@H]2[C@H](C(=O)Nc3ccnc(N4C(=O)CN(C)C[C@H]4C)c3)O[C@@](C)(C(F)(F)F)[C@H]2C)ccc(F)c1F` [Compound 652, (2R,3S,4S,5R)-3-[3,4-difluoro-2-(2-methoxyethoxy)phenyl]-N-[2-[(2R)-2,4-dimethyl-6-oxo-piperazin-1-yl]-4-pyridyl]-4,5-dimethyl-5-(trifluoromethyl)tetrahydrofuran-2-carboxamide], the IC50 was under 10 nM.

In the case of `COc1c(C2C(C(=O)Nc3cncnc3)OC(C)(C(F)(F)F)C2C)ccc(F)c1F` (single isomer, unassigned) [Compound 37, 3-(3,4-difluoro-2-methoxy-phenyl)-4,5-dimethyl-N-pyrimidin-5-yl-5-(trifluoromethyl)tetrahydrofuran-2-carboxamide], the IC50 is at least 1000 nM.

`COCC(c1cc(NC(=O)[C@@H]2O[C@@](C)(C(F)(F)F)[C@@H](C)[C@H]2c2ccc(F)c(F)c2OC)ccn1)N(C)C` (single isomer, unassigned) [Compound 424, rel-(2R*,3S*,4S*,5R*)-3-(3,4-difluoro-2-methoxyphenyl)-N-(2-(1-(dimethylamino)-2-methoxyethyl)pyridin-4-yl)-4,5-dimethyl-5-(trifluoromethyl)-tetrahydrofuran-2-carboxamide]: the IC50 was under 10 nM.

Turning to `COc1c([C@H]2[C@H](C(=O)Nc3ccnc(C(CO)N(C)C)c3)O[C@@](C)(C(F)(F)F)[C@H]2C)ccc(F)c1F` (single isomer, unassigned) [Compound 230, rel-(2R*,3S*,4S*,5R*)-3-(3,4-difluoro-2-methoxyphenyl)-N-(2-(-1-(dimethylamino)-2-hydroxyethyl)pyridin-4-yl)-4,5-dimethyl-5-(trifluoromethyl)tetrahydrofuran-2-carboxamide], the IC50 is under 10 nM.
